In patent US6410792B1, “Amide derivatives and methods for using the same as selective neuropeptide Y receptor antagonists” (Bayer Corporation, priority 1997, dated 2002):
Like-named read-outs stand apart in the source and are kept apart here.

What was measured:
Human NPY5 receptor = target: T1, Human NPY5 receptor (Homo sapiens, UniProt Q15761); assay: Human NPY5 receptor binding assay ([125I]PYY, membrane protein); conditions: [125I]PYY binding, read-out: hNPY5 IC50
T1 sequence (Q15761 1-445): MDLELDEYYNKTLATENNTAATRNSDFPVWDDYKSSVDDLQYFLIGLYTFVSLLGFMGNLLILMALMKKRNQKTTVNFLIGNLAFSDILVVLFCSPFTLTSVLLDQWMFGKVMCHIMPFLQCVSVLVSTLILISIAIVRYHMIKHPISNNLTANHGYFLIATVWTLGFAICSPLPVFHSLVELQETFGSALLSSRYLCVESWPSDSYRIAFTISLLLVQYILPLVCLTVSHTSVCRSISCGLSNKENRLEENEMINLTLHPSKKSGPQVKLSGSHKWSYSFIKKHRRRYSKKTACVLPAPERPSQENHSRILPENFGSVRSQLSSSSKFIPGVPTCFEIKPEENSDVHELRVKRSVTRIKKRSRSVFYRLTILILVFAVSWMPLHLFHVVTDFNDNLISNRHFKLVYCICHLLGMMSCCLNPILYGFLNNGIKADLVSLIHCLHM
Outline: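 Membrane protein incubated 2 h at room temperature with 75-100 pM porcine [125I]PYY and compound in pH 7.4 Tris buffer with salts, 0.1% BSA and bacitracin. Nonspecific binding with 1 μM PYY. Filtration, then gamma or scintillation counting.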

Y2 receptor = target: T2, Y2 receptor (Homo sapiens, UniProt P49146); assay: Y2 receptor binding assay ([125I]PYY, membrane protein); conditions: read-out: hNPY2 IC50
T2 sequence (P49146 1-381): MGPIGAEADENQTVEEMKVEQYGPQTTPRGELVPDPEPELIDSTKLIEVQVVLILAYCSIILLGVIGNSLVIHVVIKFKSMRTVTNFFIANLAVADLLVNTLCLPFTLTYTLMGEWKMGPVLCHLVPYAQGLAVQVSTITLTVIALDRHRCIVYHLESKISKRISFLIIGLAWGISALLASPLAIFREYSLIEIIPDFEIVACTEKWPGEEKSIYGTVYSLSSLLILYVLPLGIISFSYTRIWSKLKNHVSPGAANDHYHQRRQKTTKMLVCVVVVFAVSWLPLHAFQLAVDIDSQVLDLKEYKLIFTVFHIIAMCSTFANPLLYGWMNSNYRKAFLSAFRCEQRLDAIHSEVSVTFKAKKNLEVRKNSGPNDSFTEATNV
Outline: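 Filtration binding with membrane protein and drug dilution, 2 h at room temperature with mixing, radioactivity counted by gamma or scintillation. Y2: 25 pM [125I]PYY in Krebs-Ringer bicarbonate pH 7.4 with 0.01% BSA, nonspecific by 1 μM NPY. Y4/PP1: 50 pM [125I]hPP in HEPES-buffered saline pH 7.4 with protease inhibitors and 0.3% BSA, nonspecific by 1 μM hPP.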

[1] = [125I]PYY binding, membrane protein

SMILES	IC50 (Human NPY5 receptor) [µM]	IC50 (Y2 receptor; [1]) [µM]	IC50 (Y2 receptor) [µM]
CCCC(=O)C1(c2ccccc2)CCN(CC(=O)Nc2ccc(C(=O)c3ccccc3)cc2)CC1 [Compound 74, N-(4-Benzoyl-phenyl)-2-(4-butyryl-4-phenyl-piperidin-1-yl)-acetamide]	0.4	> 5	
CCCC(=O)C1(c2ccccc2)CCN(CC(=O)Nc2ccc(C3CCCCC3)cc2)CC1 [Compound 75, 2-(4-Butyryl-4-phenyl-piperidin-1-yl)-N-(4-cyclohexyl-phenyl)-acetamide]	0.009		> 5
O=C(CN1CCCC1c1cccnc1)Nc1ccc(C(=O)c2ccccc2)cc1 (stereo not drawn) [Compound 77, N-(4-Benzoyl-phenyl)-2-(2-pyridin-3-yl-pyrrolidin-1-yl)-acetamide]	2.6	> 5	
O=C(CN1CCC[C@H]1CN1CCCC1)Nc1ccc(C(=O)c2ccccc2)cc1 [Compound 78, N-(4-Benzoyl-phenyl)-2-(2S-pyrrolidin-1-ylmethyl-pyrrolidin-1-yl)-acetamide]	> 5	> 5	
O=C(CN1CCC[C@H]1CN1CCCC1)Nc1ccc(C2CCCCC2)cc1 [Compound 79, N-(4-Cyclohexyl-phenyl)-2-(2S-pyrrolidin-1-ylmethyl-pyrrolidin-1-yl)-acetamide]	3.5	> 5	
O=C(CN1CC[C@@H](O)C1)Nc1ccc(C2CCCCC2)cc1 [Compound 80, N-(4-Cyclohexyl-phenyl)-2-(3R-hydroxy-pyrrolidin-1-yl)-acetamide]	1.4	> 5	
O=C(CN1CC[C@@H](O)C1)Nc1ccc(C(=O)c2ccccc2)cc1 [Compound 81, N-(4-Benzoyl-phenyl)-2-(3R-hydroxy-pyrrolidin-1-yl)-acetamide]	> 5	> 5	
O=C(CN1CCC[C@@H]1C(O)(c1ccccc1)c1ccccc1)Nc1ccc(C(=O)c2ccccc2)cc1 [Compound 82, N-(4-Benzoyl-phenyl)-2-[2R-(hydroxy-diphenyl-methyl)-pyrrolidin-1-yl]-acetamide]	> 5	> 5	
O=C(CN1CCC[C@@H]1C(O)(c1ccccc1)c1ccccc1)Nc1ccc(C2CCCCC2)cc1 [Compound 83, N-(4-Cyclohexyl-phenyl)-2-[2R-(hydroxy-diphenyl-methyl)-pyrrolidin-1-yl]-acetamide]	0.92	> 5	
O=C(CN1CCC[C@H]1CO)Nc1ccc(C2CCCCC2)cc1 [Compound 84, N-(4-Cyclohexyl-phenyl)-2-(2S-hydroxymethyl-pyrrolidin-1-yl)-acetamide]	0.93	> 5	
O=C(CN1CCC[C@H]1CO)Nc1ccc(C(=O)c2ccccc2)cc1 [Compound 85, N-(4-Benzoyl-phenyl)-2-(2S-hydroxymethyl-pyrrolidin-1-yl)-acetamide]	2.8	> 5	
CC(=O)C1(c2ccccc2)CCN(CC(=O)Nc2ccc(C(=O)c3ccccc3)cc2)CC1 [Compound 86, 2-(4-Acetyl-4-phenyl-piperidin-1-yl)-N-(4-benzoyl-phenyl)-acetamide]	0.001	> 5	
CC(=O)C1(c2ccccc2)CCN(CC(=O)Nc2ccc(C3CCCCC3)cc2)CC1 [Compound 87, 2-(4-Acetyl-4-phenyl-piperidin-1-yl)-N-(4-cyclohexyl-phenyl)-acetamide]	0.004	> 5	
NC[C@@H]1CCCN1CC(=O)Nc1ccc(C2CCCCC2)cc1 [Compound 91, 2-(2S-Aminomethyl-pyrrolidin-1-yl)-N-(4-cyclohexyl-phenyl)-acetamide]	0.43	> 5	
O=C(CN1CCC(O)C1)Nc1ccc(C2CCCCC2)cc1 (stereo not drawn) [Compound 92, N-(4-Cyclohexyl-phenyl)-2-(3-hydroxy-pyrrolidin-1-yl)-acetamide]	1.3	> 5	
COC[C@@H]1CCCN1CC(=O)Nc1ccc(C2CCCCC2)cc1 [Compound 93, N-(4-Cyclohexyl-phenyl)-2-(2S-methoxymethyl-pyrrolidin-1-yl)-acetamide]	0.48	> 5	
CC1(C)C[C@@H]2C[C@@](C)(CN2CC(=O)Nc2ccc(C3CCCCC3)cc2)C1 [Compound 94, N-(4-Cyclohexyl-phenyl)-2-((1S,5R)-1,3,3-trimethyl-6-aza-bicyclo[3.2.1]oct-6-yl)-acetamide]	3.2	> 5	

SMILES	IC50 (Human NPY5 receptor) [µM]	IC50 (Y2 receptor; [1]) [µM]	IC50 (Y2 receptor) [µM]
O=C(CN1CCC[C@H]1C(=O)OCc1ccccc1)Nc1ccc(C2CCCCC2)cc1 [Compound 95, (2S)-1-[(4-Cyclohexyl-phenylcarbamoyl)-methyl]-pyrrolidin-2-carboxylic acid benzyl ester]	1.6	> 5	
COC(=O)[C@@H]1CCCN1CC(=O)Nc1ccc(C2CCCCC2)cc1 [Compound 96, (2S)-1-[(4-Cyclohexyl-phenylcarbamoyl)-methyl]-pyrrolidine-2-carboxylic acid methyl ester]	1.2	> 5	
O=C(CN1CCC(Br)CC1)Nc1ccc(C2CCCCC2)cc1 [Compound 97, 2-(4-Bromo-piperidin-1-yl)-N-(4-Cyclohexyl-phenyl)-acetamide]	0.15	> 5	
O=C(CN1C[C@H](O)C[C@H]1C(=O)O)Nc1ccc(C2CCCCC2)cc1 [Compound 98, (2S,4R)-1-[(4-Cyclohexyl-phenylcarbamoyl)-methyl]-4-hydroxy-pyrrolidine-2-carboxylic acid]	> 10	> 5	
O=C(CN1CCC[C@H]1C(=O)O)Nc1ccc(C2CCCCC2)cc1 [Compound 99, (2S)-1-[(4-Cyclohexyl-phenylcarbamoyl)-methyl]-pyrrolidine-2-carboxylic acid]	8.4	> 5	
NC1CCN(CC(=O)Nc2ccc(C3CCCCC3)cc2)C1 (stereo not drawn) [Compound 100, 2-(3-Amino-pyrrolidin-1-yl)-N-(4-cyclohexyl-phenyl)-acetamide]	2.4	> 5	
O=C(CN1CCC(O)C1)Nc1ccc(C(=O)c2ccccc2)cc1 (stereo not drawn) [Compound 103, N-(4-Benzoyl-phenyl)-2-(3-hydroxy-pyrrolidin-1-yl)-acetamide]	3	> 5	
COC[C@@H]1CCCN1CC(=O)Nc1ccc(C(=O)c2ccccc2)cc1 [Compound 104, N-(4-Benzoyl-phenyl)-2-(2S-methoxymethyl-pyrrolidin-1-yl)-acetamide]	0.49	> 5	
CC1(C)C[C@@H]2C[C@@](C)(CN2CC(=O)Nc2ccc(C(=O)c3ccccc3)cc2)C1 [Compound 105, N-(4-Benzoyl-phenyl)-2-((1S,5R)-1,3,3-trimethyl-6-aza-bicyclo[3.2.1]oct-6-yl)-acetamide]	5.1	> 5	
O=C(CN1CCC[C@H]1C(=O)OCc1ccccc1)Nc1ccc(C(=O)c2ccccc2)cc1 [Compound 106, (2S)-1-[(4-Benzoyl-phenylcarbamoyl)-methyl]-pyrrolidine-2-carboxylic acid benzyl ester]	3	> 5	
COC(=O)[C@@H]1CCCN1CC(=O)Nc1ccc(C(=O)c2ccccc2)cc1 [Compound 107, (2S)-1-[(4-Benzoyl-phenylcarbamoyl)-methyl]-pyrrolidine-2-carboxylic acid methyl ester]	2.9	> 5	
O=C(CN1CCC(Br)CC1)Nc1ccc(C(=O)c2ccccc2)cc1 [Compound 108, N-(4-Benzoyl-phenyl)-2-(4-bromo-piperidin-1-yl)-acetamide]	0.97	> 5	
O=C(CN1C[C@H](O)C[C@H]1C(=O)O)Nc1ccc(C(=O)c2ccccc2)cc1 [Compound 109, (2S,4R)-1-[(4-Benzoyl-phenylcarbamoyl)-methyl]-4-hydroxy-pyrrolidine-2-carboxylic acid]	> 10	> 5	
O=C(CN1CCC[C@H]1C(=O)O)Nc1ccc(C(=O)c2ccccc2)cc1 [Compound 110, (2S)-1-[(4-Benzoyl-phenylcarbamoyl)-methyl]-pyrrolidine-2-carboxylic acid]	8.7	> 5	
NC1CCN(CC(=O)Nc2ccc(C(=O)c3ccccc3)cc2)C1 (stereo not drawn) [Compound 112, 2-(3-Amino-pyrrolidin-1-yl)-N-(4-benzoyl-phenyl)-acetamide]	3.9	> 5	
O=C(CN1CCC[C@@H]1CO)Nc1ccc(C2CCCCC2)cc1 [Compound 113, N-(4-Cyclohexyl-phenyl)-2-(2R-hydroxymethyl-pyrrolidin-1-yl)-acetamide]	0.7	> 5	
